This passage reports IC50 results from ChEMBL document CHEMBL1201862, “PubChem BioAssay data set” (2004).

The IC50 is the concentration at which inhibition is half-maximal.

The assay concerns the target Envelope glycoprotein gp160 (Human immunodeficiency virus 1, UniProt Q6QLK5). The assay can be described thus: cell-free HIV fusion peptide-binding blockers – biochemical, uHTS, fluorescence dequenching, […] (AID 1986).

Calls of active or inactive are those of the source. Rule as the data show it: actives have a measured IC50 and inactives only a lower limit.

Chain of Envelope glycoprotein gp160 (Q6QLK5 whole entry, the tested form may be a part): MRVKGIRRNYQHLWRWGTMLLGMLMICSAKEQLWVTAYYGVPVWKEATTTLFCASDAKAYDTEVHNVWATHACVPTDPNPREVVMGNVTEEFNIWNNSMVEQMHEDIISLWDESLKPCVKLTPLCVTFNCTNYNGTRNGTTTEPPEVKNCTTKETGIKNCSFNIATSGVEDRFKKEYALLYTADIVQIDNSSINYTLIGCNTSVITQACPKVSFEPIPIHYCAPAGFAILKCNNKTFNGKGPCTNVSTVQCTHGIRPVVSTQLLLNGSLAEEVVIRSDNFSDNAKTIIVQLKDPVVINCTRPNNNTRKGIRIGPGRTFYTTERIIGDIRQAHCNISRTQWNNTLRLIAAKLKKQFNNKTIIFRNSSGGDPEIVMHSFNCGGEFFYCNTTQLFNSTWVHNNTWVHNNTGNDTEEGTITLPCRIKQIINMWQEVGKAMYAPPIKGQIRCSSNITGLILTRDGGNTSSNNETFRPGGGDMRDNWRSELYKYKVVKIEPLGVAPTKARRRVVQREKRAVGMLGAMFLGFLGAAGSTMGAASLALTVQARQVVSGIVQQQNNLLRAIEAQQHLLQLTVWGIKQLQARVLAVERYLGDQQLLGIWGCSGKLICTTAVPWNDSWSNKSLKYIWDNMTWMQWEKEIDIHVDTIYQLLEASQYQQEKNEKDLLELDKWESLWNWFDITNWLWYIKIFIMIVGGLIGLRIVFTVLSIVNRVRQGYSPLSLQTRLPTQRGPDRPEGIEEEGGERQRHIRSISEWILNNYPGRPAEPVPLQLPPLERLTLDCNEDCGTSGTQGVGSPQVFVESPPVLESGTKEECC

`Cc1ccc(N2C(=O)/C(=C\Nc3ccccc3-c3nnc(S)nc3O)c3ccccc3C2=O)c(C)c1`: the IC50 is 23.9 µM (active).
